Assay results reported in the SangsterLogP compilation.

| SMILES | logP |
| --- | --- |
| CCC(=O)OCCCNc1ccc(-c2ccncc2)cn1 | 2.87 |
| CC(=O)OCCOc1ccc(-c2ccncc2)cn1 | 1.92 |
| CC(=O)OCCCNc1ccc(-c2ccncc2)cn1 | 2.42 |
| CC(=O)OCCCOc1ccc(-c2ccncc2)cn1 | 2.48 |
| CCC(=O)OCCNc1ccc(-c2ccncc2)cn1 | 2.47 |
| CC(=O)OCCN(CCOC(C)=O)c1ncc(-c2ccncc2)cc1C#N | 2.44 |
| CC(=O)OCCNc1ccc(-c2ccncc2)cn1 | 2 |
| CCC(=O)OCCCOc1ccc(-c2ccncc2)cn1 | 3.07 |
| CC(=O)OCC(COc1ncc(-c2ccncc2)cc1C#N)OC(C)=O (stereo not given) | 2.51 |
| O=C(OCCNc1ccc(-c2ccncc2)cn1)c1cccnc1 | 2.58 |

Results, then the molecule that gave them:

| logP | SMILES |
| --- | --- |
| 3.84 | O=C(OCCNc1ccc(-c2ccncc2)cn1)c1ccccc1 |
| 3.21 | CCC(=O)OCCOc1ccc(-c2ccncc2)c(C)n1 |
| 2.91 | CC(=O)OCCCNc1ccc(-c2ccncc2)c(C)n1 |
| 2.39 | CCC(=O)N1CCN(c2ccc(-c3ccncc3)cn2)CC1 |
| 4.08 | CC(=O)N1CCN(c2ccc(-c3ccccc3)c(C)n2)CC1 |
| 3.74 | CC(=O)COC(C)CNc1ccc(-c2ccccc2)c(C)n1 (stereo not given) |
| 2.04 | CC(=O)N1CCN(c2ccc(-c3ccncc3)cn2)CC1 |
| 4.06 | O=C(OCCCNc1ccc(-c2ccncc2)cn1)c1ccccc1 |
| 4 | CC(=O)OCCOc1ccc(-c2ccccc2)c(C)n1 |
| 2.59 | CC(=O)OCCNc1ccc(-c2ccncc2)c(C)n1 |
